Where a name gives a salt, the structure may show the parent alone.
Columns and labels:
[1] = tested on: HUVEC sprouting; test: Primary angiogenesis screen, HUVEC spheroid evaluation (EC sprouting); format: cell-based, human; conditions: HUVEC spheroids in collagen gel, VEGF-supplemented, 24 hours
Method: A test substance was selected for evaluation in angiogenesis screens. The test substance was synthesized or obtained as appropriate and stored at −20° C. in DMSO. Prior to use, the test substance was thawed and 5 mM of the substance was diluted to a 10 fold concentrated working solution (100 μM) in endothelial cell basal medium. The basal medium fraction was supplemented with 25 ng VEGF/100 μl for the stimulation of HUVEC sprouting.
The screening procedures were modified versions of those described by Korff and Augustin (J Cell Sci 112: 3249-58, 1999). By way of summary, spheroids were prepared by pipetting 400 human umbilical vein endothelial cells (HUVEC) into each well of nonadhesive 96-well plates. Prior to use the HUVEC were cultured according to the supplier's instructions (PromoCell, Heidelberg, Germany). The cells were allowed to aggregate overnight into spheroids (Korff and Augustin: J Cell Biol 143: 1341-52, 1998). After aggregation, 48 HUVEC spheriods were harvested. Each harvested spheroid was seeded in 900 μl of methocel-collagen solution and pipetted into an individual well of a 24-well plate to allow collagen gel polymerization.
(§1) Thirty (30) minutes after seeding, the test substance was added. The working dilution (10 fold concentration) was utilized, 100 μl was pipetted on top of the polymerized collagen gel in each well. The plates were then incubated at 37° C. for 24 hours. At the end of the incubation period the plates were fixed by adding 1 ml paraformaldehyde (10%) to each well.
The HUVEC spheriods were microscopically assayed for endothelial cell (EC) sprouting intensity. The degree of EC sprouting was classified into one of four groups by comparing the degree of sprouting to that observed in VEGF control cells. […] For exemplary results, see FIG. 1.

[2] = tested on: NHDF (human dermal fibroblasts) scattering; test: NHDF spheroid evaluation (fibroblast scattering); format: cell-based
Method: Where the test compound was classified as an inhibitor or stimulator, a second screening process was performed. In the second screen, the test substance was thawed and 5 mM of the substance was diluted to a 10 fold concentrated working solution (100 μM) in endothelial cell basal medium. No supplements were used in the basal medium.
Instead of HUVEC, spheroids were prepared by pipetting 400 human dermal fibroblasts (NHDF) into each well of nonadhesive 96-well plates. Prior to use the NHDF were cultured according to the supplier's instructions (PromoCell, Heidelberg, Germany). The cells were allowed to aggregate overnight into spheroids (Korff and Augustin: J Cell Biol 143: 1341-52, 1998). After aggregation, 48 NHDF spheroids were harvested. Each of the harvested spheroids was seeded in 900 μl of methocel-collagen solution and pipetted into an individual well of a 24-well plate to allow collagen gel polymerization.
as §1
The NHDF spheroids were microscopically assayed for fibroblast scattering intensity. […] For exemplary results, see FIG. 1.

[3] = tested on: HDMEC; test: Cell proliferation assay (crystal violet), HDMEC; format: cell-based; conditions: 72 hours, OD 595 nm
Method: (§2) In order to further confirm the surprising results described above, the compounds were tested in a cell proliferation assay. Crystal violet was used to measure cell proliferation; this basic dye stains cell nuclei and provides a sensitive, rapid evaluation. Light absorption of unstained or destained cell layers is negligible, making it possible to perform cell number measurements in wells. Six cell types (HUVEC, HDMEC, SMC, Fibroblast, A375 and RENCA) were plated and treated with the compounds in a log2 titration for 72 hours. The optimal cell number for each cell type was determined and optical density (OD) was measured at 595 nm. Each data point was measured in quadruplicate. The assay was stopped after 72 hours and subsequently analyzed. The OD-value of the plated cells before addition of the compounds was subtracted from all OD-values obtained after treatment. The percentage in relation to control proliferation was then calculated. Negative values therefore represent a count of fewer cells than were plated. The IC50 is given below in Table 1. Results are shown as a percentage in relation to the control proliferation. The IC50 were calculated using GraphPad Prism software (GraphPad Software, Inc.). Perhexiline results are depicted graphically in FIGS. 4A-4C and Erythromycin results in FIGS. 5A-5C.

[4] = tested on: SMC; test: Cell proliferation assay (crystal violet), SMC; format: cell-based; conditions: 72 hours, OD 595 nm
Method: as §2

[5] = tested on: Fibroblast; test: Cell proliferation assay (crystal violet), Fibroblast; format: cell-based; conditions: 72 hours, OD 595 nm
Method: as §2

[6] = tested on: RENCA; test: Cell proliferation assay (crystal violet), RENCA; format: cell-based; conditions: 72 hours, OD 595 nm
Method: as §2

[7] = tested on: HDMEC; test: Cytoviability assay (resazurin), HDMEC; format: cell-based; conditions: 24 hours after treatment, read-out: IC50 cell viability HDMEC
Method: (§3) A cell viability assay based on cellular reduction of resazurin to the fluorescent product resorufin was performed. Viable cells can metabolize and reduce the dye, whereas dead cells rapidly lose the capacity to do so, making the increase in fluorescence directly proportional to the number of viable cells. The tested compounds were added in a log2 titration and viable cells were analyzed 24 hours after treatment. The fluorescence was determined at an excitation wavelength of 560 nm and an emission wavelength of 590 nm. The percentage of viable cells in relation to the untreated control proliferation was calculated. […] Perhexiline results are depicted graphically in FIGS. 6A-6C and Erythromycin results in FIGS. 7A-7C.

[8] = tested on: SMC; test: Cytoviability assay (resazurin), SMC; format: cell-based; conditions: 24 hours after treatment, read-out: IC50 cell viability SMC
Method: as §3

[9] = tested on: Fibroblast; test: Cytoviability assay (resazurin), Fibroblast; format: cell-based; conditions: 24 hours after treatment, read-out: IC50 cell viability Fibroblast
Method: as §3

[10] = tested on: A375; test: Cytoviability assay (resazurin), A375; format: cell-based; conditions: Homo sapiens, A-375, 24 hours after treatment, read-out: IC50 cell viability A375
Method: as §3

[11] = tested on: RENCA; test: Cytoviability assay (resazurin), RENCA; format: cell-based; conditions: 24 hours after treatment, read-out: IC50 cell viability RENCA
Method: as §3

[12] = tested on: B16F10 cells; test: Cell viability of B16F10 cells; format: cell-based; conditions: Mus musculus, B16-F10; after 24 and 48 hours incubation
Method: as §3
Through the two aforementioned assays it was determined that RENCA cells are more sensitive when treated with Perhexiline than the other cell types in the proliferation assay and in the viability assay. Therefore, the B16F10 cells were subsequently tested. The B16F10 tumor model, like the RENCA model, is an orthotopic tumor model.

[13] = tested on: Endothelial cells, Fibroblast, Alexander cells; test: Viability of cells (Endothelial cells, Fibroblast, Alexander cells); format: cell-based

- IC50 [10]: 10 µM
- IC50 [12]: 10 µM
SMILES: C1CCC(C(CC2CCCCN2)C2CCCCC2)CC1 (centres unmarked) [Perhexiline, Perhexiline maleate]
- EC sprouting intensity compared with VEGF control [1]: sprouting inhibition
- IC50 ([2]; Homo sapiens, NHDF): 19 µM
- fibroblast scattering (invasion) effect ([2]; NHDF spheroids in collagen gel, no supplements, 24 hours): no fibroblast invasion effect
- IC50 [3]: 11 µM
- IC50 [4]: 14 µM
- IC50 [5]: 12 µM
- IC50 [6]: 7.6 µM
- IC50 [7]: 8 µM
- IC50 [8]: 32 µM
- IC50 [9]: 5.2 µM
- IC50 [11]: 5 µM
- IC50 [13]: ~10 µM

Source: patent US20070142433A1, “Angiogenesis-affecting compounds and methods of use thereof” (priority 2004, published 2007)
